Test systems include A498; ACHN; BT-549; CCRF-CEM; HCT-116; KM12; LOX IMVI; MCF7; MDA-MB-231; MDA-MB-435; MOLT-4; NCI-H226; NCI-H460; OVCAR-5; SK-MEL-2; SN12C; SNB-19; SR; U-251; MDA-N.
What all share (assay): NCI-60 cell line screen, 48 h

Molecules are shown by their SMILES.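 These data come from cells grown in 96-well plates and exposed to compound for 48 hours at five concentrations. At the GI50, growth is halved.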 Calls of active or inactive are those of the source. No stated cut-off is given here; in the data, active = GI50 up to about 1.1 µM and inactive = higher.

With `CCCc1cn2c(/C=N/NC(=N)N)c(-c3ccc([N+](=O)[O-])cc3)nc2s1`, the GI50 with A498 was 5.26 µM (inactive); in the assay on ACHN, 1.67 µM (inactive); in the assay with BT-549, 1.92 µM (inactive); in the assay on CCRF-CEM, 0.277 µM (active); in the assay with HCT-116 it was 0.377 µM (active); in the assay on KM12 it was 1.52 µM (inactive). Moreover, the GI50 was 1.39 µM (inactive) with LOX IMVI; 1.75 µM (inactive) with MCF7; 1.69 µM (inactive) in the assay with MDA-MB-231; 1.63 µM (inactive) in the assay with MDA-MB-435; 0.231 µM (active) in the assay with MOLT-4; 2 µM (inactive) in the assay with NCI-H226. In addition, the GI50 in the assay on NCI-H460 is 1.93 µM (inactive); in the assay on OVCAR-5 it was 1.71 µM (inactive); with SK-MEL-2 it was 2.13 µM (inactive); in the assay with SN12C, 1.58 µM (inactive); in the assay on SNB-19, 1.71 µM (inactive); in the assay on SR it was 0.245 µM (active). Besides, the GI50 with U-251 was 0.769 µM (active).
Take `O=c1c2ccccc2n2c(-c3ccccc3O)nnc2n1-c1ccccc1`: the GI50 in the assay on A498 was > 100 µM (inactive); in the assay with ACHN it was > 100 µM (inactive); in the assay on CCRF-CEM, 67.3 µM (inactive); with HCT-116, > 100 µM (inactive); with KM12 it was > 100 µM (inactive); in the assay on LOX IMVI, > 100 µM (inactive). Further, the GI50 with MCF7, in the assay on MDA-MB-231, with MDA-MB-435, in the assay on MDA-N, with MOLT-4 and in the assay with NCI-H226 was > 100 µM (inactive) throughout. The GI50 in the assay on NCI-H460, in the assay with OVCAR-5, in the assay on SK-MEL-2, in the assay on SN12C, with SNB-19 and in the assay with SR was > 100 µM (inactive) in each case. The GI50 with U-251 is > 100 µM (inactive).
For the compound `O=C(ON=C1c2ccccc2C(Br)C(Br)c2ccccc21)c1cc([N+](=O)[O-])cc([N+](=O)[O-])c1` (stereo not given), the GI50 in the assay with A498 was 17.6 µM (inactive); with ACHN, 21.3 µM (inactive); in the assay on CCRF-CEM, 0.787 µM (active); with HCT-116, 18.5 µM (inactive); in the assay on KM12, 19.4 µM (inactive); in the assay on LOX IMVI it was 13.9 µM (inactive). Besides, the GI50 is 24.7 µM (inactive) in the assay on MCF7; 19.2 µM (inactive) in the assay with MDA-MB-231; 18.5 µM (inactive) with MDA-MB-435; 22.1 µM (inactive) in the assay on MDA-N; 7.45 µM (inactive) with MOLT-4; 24.9 µM (inactive) with NCI-H226. In addition, the GI50 is 19.2 µM (inactive) with NCI-H460; 22.4 µM (inactive) in the assay with OVCAR-5; 31.6 µM (inactive) in the assay with SK-MEL-2; 18.5 µM (inactive) with SN12C; 24.1 µM (inactive) in the assay with SNB-19; 0.245 µM (active) in the assay with SR. Moreover, the GI50 in the assay with U-251 was 15.8 µM (inactive).
As for `CC(C)(C)C(=O)C(C(=O)C(C)(C)C)C(=O)C(C)(C)C`, the GI50 in the assay with A498, in the assay with ACHN, with CCRF-CEM, in the assay with HCT-116, with KM12 and with LOX IMVI was > 100 µM (inactive) in each case. Besides, the GI50 in the assay on MCF7, in the assay on MDA-MB-231, in the assay with MDA-MB-435, in the assay with MDA-N, in the assay on MOLT-4 and in the assay on NCI-H226 was > 100 µM (inactive) each time. For the same compound, the GI50 in the assay on NCI-H460, with OVCAR-5, in the assay on SK-MEL-2, in the assay with SN12C, with SNB-19 and in the assay with SR was > 100 µM (inactive) throughout. The GI50 with U-251 is > 100 µM (inactive).
As for `O=c1oc2cccnc2n1CCCCN1CCN(c2ccccc2)CC1`, the GI50 in the assay on A498, with ACHN, in the assay on CCRF-CEM, in the assay on HCT-116, in the assay with LOX IMVI and in the assay with MCF7 was > 100 µM (inactive) in each case. Moreover, the GI50 in the assay on MDA-MB-231, with MDA-MB-435, in the assay on MDA-N, in the assay with MOLT-4, in the assay on NCI-H460 and with OVCAR-5 was > 100 µM (inactive) each time. The GI50 in the assay with SK-MEL-2, with SNB-19, in the assay with SR and in the assay on U-251 was > 100 µM (inactive) each time.
On to `CNC(=O)c1cc2nc3ccccc3c(=O)n2c2ccccc12`, for which the GI50 in the assay on A498, with ACHN, with BT-549, in the assay with CCRF-CEM, in the assay on HCT-116 and with KM12 was > 10 µM (inactive) in each case. In addition, the GI50 with LOX IMVI, in the assay on MCF7, in the assay with MDA-MB-231, in the assay on MDA-MB-435, in the assay with MOLT-4 and in the assay with NCI-H226 was > 10 µM (inactive) throughout. Besides, the GI50 in the assay on OVCAR-5, with SK-MEL-2, in the assay on SN12C, in the assay on SNB-19, in the assay with SR and in the assay with U-251 was > 10 µM (inactive) throughout.
As to `CC[C@]12C=CCN3CCC4(c5cc([C@@]6(C(=O)OC)CC7CN(CCc8c6[nH]c6ccccc86)C[C@@H]6CCC[C@H]76)c(OC)cc5N(C)C4[C@](O)(C(=O)OC)C1OC(C)=O)C32` (stereo not given in full), the GI50 in the assay with A498 was 0.251 µM (active); in the assay with ACHN, 0.807 µM (active); with CCRF-CEM it was 0.122 µM (active); with HCT-116, 0.108 µM (active); with KM12 it was 0.0713 µM (active); in the assay on LOX IMVI, 0.141 µM (active). For the same compound, the GI50 is 0.0127 µM (active) with MCF7; 0.0762 µM (active) in the assay with MDA-MB-231; 0.00318 µM (active) with MDA-MB-435; 0.00363 µM (active) in the assay on MDA-N; 0.155 µM (active) in the assay on MOLT-4; 0.201 µM (active) with NCI-H226. Further, the GI50 was 0.142 µM (active) in the assay on NCI-H460; 0.741 µM (active) with OVCAR-5; 0.179 µM (active) in the assay with SK-MEL-2; 0.423 µM (active) in the assay with SN12C; 0.121 µM (active) in the assay on SNB-19; 0.0528 µM (active) in the assay on SR. Further, the GI50 with U-251 was 0.106 µM (active).
Turning to `Cc1ccc(Nc2nc(O)c3[nH]cnc3n2)cc1CO`, the GI50 was 16 µM (inactive) in the assay on ACHN; 14.9 µM (inactive) in the assay on BT-549; 16.1 µM (inactive) in the assay on CCRF-CEM; 12.1 µM (inactive) in the assay with HCT-116; 8.81 µM (inactive) in the assay with KM12; 19.9 µM (inactive) in the assay on LOX IMVI. Moreover, the GI50 in the assay on MCF7 was 16.6 µM (inactive); in the assay with MDA-MB-231 it was 12.1 µM (inactive); in the assay on MDA-MB-435, 15.8 µM (inactive); with MOLT-4 it was 15.5 µM (inactive); with NCI-H226, 17.1 µM (inactive); in the assay with NCI-H460, 16.5 µM (inactive). Besides, the GI50 is 18.9 µM (inactive) in the assay on OVCAR-5, 16.6 µM (inactive) in the assay with SK-MEL-2, 12.2 µM (inactive) in the assay with SNB-19 and 14 µM (inactive) in the assay with SR.

Source of the values: ChEMBL document CHEMBL1201862, “PubChem BioAssay data set” (2004).
